Values quoted from earlier work in patent publication US20240197726A1, “NOVEL TETRAHYDROISOQUINOLINE ALKALOID COMPOUND CONTAINING MACROCYCLE” (THE UNIVERSITY OF TOKYO, priority 2021, published 2024).
Where two headings read alike, the source gives them in different places.

Experiments:
Conditions in all cases: cited from earlier work
A549 lung cancer cells = system: A549 lung cancer cells
[1] = system: HT-29 colorectal cancer cells
[2] = system: MCF-7 breast cancer cells
[3] = system: NCI-H460 lung cancer cells
[4] = system: HCT-116 colorectal cancer cells
[5] = system: NCI-H23 lung cancer cells
[6] = system: MDA-MB-231 breast cancer cells
[7] = A549 lung cancer cells, comparative value based on the literature, read-out: antitumor activity GI50 value: 50% growth inhibitory concentration
[8] = HT-29 colorectal cancer cells, comparative value based on the literature, read-out: antitumor activity GI50 value: 50% growth inhibitory concentration
[9] = MCF-7 breast cancer cells, comparative value based on the literature, read-out: antitumor activity GI50 value: 50% growth inhibitory concentration
[10] = NCl--H460 lung cancer cells, comparative value based on the literature, read-out: antitumor activity GI50 value: 50% growth inhibitory concentration
[11] = HCT-116 colorectal cancer cells, comparative value based on the literature, read-out: antitumor activity GI50 value: 50% growth inhibitory concentration
[12] = NCl-H23 lung cancer cells, comparative value based on the literature, read-out: antitumor activity GI50 value: 50% growth inhibitory concentration
[13] = MDA-MB-231 breast cancer cells, comparative value based on the literature, read-out: antitumor activity GI50 value: 50% growth inhibitory concentration

| SMILES | GI50 (A549 lung cancer cells; [7]) [nM] | GI50 [1, 8] [nM] | GI50 [2, 9] [nM] | GI50 [3, 10] [nM] | GI50 [4, 11] [nM] | GI50 [5, 12] [nM] | GI50 [6, 13] [nM] | GI50 (A549 lung cancer cells; A549, reference values from literature (Leal et al. Br. J Pharmacol, 2010), read-out: GI50 value: 50% growth inhibitory concentration) [nM] | GI50 ([1]; HT-29, reference values from literature (Leal et al. Br. J Pharmacol, 2010), read-out: GI50 value: 50% growth inhibitory concentration) [nM] | GI50 ([2]; MCF-7, reference values from literature (Leal et al. Br. J Pharmacol, 2010), listed as drawing 118, read-out: GI50 value: 50% growth inhibitory concentration) [nM] | GI50 ([2]; MCF-7, reference values from literature (Leal et al. Br. J Pharmacol, 2010), listed as drawing 142, read-out: GI50 value: 50% growth inhibitory concentration) [nM] | GI50 ([3]; NCI-H460, reference values from literature (Leal et al. Br. J Pharmacol, 2010), read-out: GI50 value: 50% growth inhibitory concentration) [nM] | GI50 ([4]; HCT-116, reference values from literature (Leal et al. Br. J Pharmacol, 2010), read-out: GI50 value: 50% growth inhibitory concentration) [nM] | GI50 ([5]; NCI-H23, reference values from literature (Leal et al. Br. J Pharmacol, 2010), read-out: GI50 value: 50% growth inhibitory concentration) [nM] | GI50 ([6]; MDA-MB-231, reference values from literature (Leal et al. Br. J Pharmacol, 2010), read-out: GI50 value: 50% growth inhibitory concentration) [nM] |
| --- | --- | --- | --- | --- | --- | --- | --- | --- | --- | --- | --- | --- | --- | --- | --- |
| COc1c(C)cc2c(c1C)[C@H]1N(C)[C@@](C)(C2)C(O)N2C1(C)[C@@H]1CCC3(NCCc4cc(C)c(C)cc43)C(=O)OC[C@@]2(C)c2c3c(c(C)c(C)c21)OCO3 (stereo partly shown) | 10.4 | 9.8 | 2.6 | 1.8 | 4.9 | 2.1 | 3.9 | – | – | – | – | – | – | – | – |
| COc1c(C)cc2c(c1C)[C@H]1N(C)[C@@](C)(C2)C(C)N2C1(C)[C@@H]1CCC3(NCCc4cc(C)c(C)cc43)C(=O)OC[C@@]2(C)c2c3c(c(C)c(C)c21)OCO3 (stereo partly shown) | 10.4 | 9.8 | 2.6 | 1.8 | 4.9 | 2.1 | 3.9 | – | – | – | – | – | – | – | – |
| COc1cc2c(cc1O)CCNC21CS[C@@H]2c3c(OC(C)=O)c(C)c4c(c3C(COC1=O)N1[C@@H]2[C@H]2c3c(cc(C)c(OC)c3O)C[C@@H]([C@@H]1O)N2C)OCO4 (stereo partly shown) [Ecteinascidin 743, reference compound] | – | – | – | – | – | – | – | 10.4 | 9.8 | 2.6 | 2.8 | 1.8 | 4.9 | 2.1 | 3.9 |
